# Counter-ions that a name gives are not always drawn. Like-named read-outs stand apart in the source and are kept apart here.
# What was measured:
# [1] = biological target: Pim-2 (Homo sapiens (Human), UniProt Q9P1W9); assay: Pim-Mn enzyme assay (HTRF, 384-well), Pim-2; assay type: biochemical; details: read-out: Pim-2-Mn IC50 IP
# [2] = biological target: Pim-1 (Homo sapiens (Human), UniProt P11309); assay: Pim-Mn enzyme assay (HTRF, 384-well), Pim-1; assay type: biochemical; details: Pim-1 enzyme 5 pM, ATP 1.5 μM, BAD (S112) 0.5 μM, HTRF, 22-point curve; read-out: Pim-1-Mn IC50 IP
# Chain of Pim-1 (P11309 whole entry): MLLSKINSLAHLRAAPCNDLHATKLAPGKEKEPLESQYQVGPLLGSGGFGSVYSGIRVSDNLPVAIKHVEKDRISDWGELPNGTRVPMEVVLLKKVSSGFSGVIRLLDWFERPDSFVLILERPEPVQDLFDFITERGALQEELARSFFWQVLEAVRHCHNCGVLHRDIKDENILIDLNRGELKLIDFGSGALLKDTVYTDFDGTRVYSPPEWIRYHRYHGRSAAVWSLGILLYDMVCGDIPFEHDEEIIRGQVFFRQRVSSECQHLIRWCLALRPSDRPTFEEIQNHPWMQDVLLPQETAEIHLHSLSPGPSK
# [3] = Pim-2 enzyme 0.5 pM, ATP 1.5 μM, BAD (S112) 0.5 μM, HTRF, 22-point curve
# Chain of Pim-2 (Q9P1W9 whole entry): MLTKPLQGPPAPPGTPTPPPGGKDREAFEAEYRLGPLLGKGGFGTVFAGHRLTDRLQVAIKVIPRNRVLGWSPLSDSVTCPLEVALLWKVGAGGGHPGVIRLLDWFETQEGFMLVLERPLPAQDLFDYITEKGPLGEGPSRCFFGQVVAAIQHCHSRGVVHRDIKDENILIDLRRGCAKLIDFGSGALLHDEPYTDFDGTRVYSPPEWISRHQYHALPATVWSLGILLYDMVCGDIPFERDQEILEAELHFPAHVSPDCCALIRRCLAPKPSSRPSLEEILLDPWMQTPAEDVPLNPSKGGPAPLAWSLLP
Compound,"IC50 [1, 3] [nM]",IC50 [2] [nM],IC50 [1] [nM]
"Cc1nc2cccc(-c3cc4c([nH]3)C[C@H](C)NC4=O)c2nc1NC(C)(C)C [Example 288, (6S)-2-(3-(tert-butylamino)-2-methyl-5-quinoxalinyl)-6-methyl-1,5,6,7-tetrahydro-4H-pyrrolo[3,2-c]pyridin-4-one]",3.96,5.85,–
"Cc1nc2cccc(-c3cc4c([nH]3)CCNC4=O)c2nc1NC(C)(C)C(=O)O [Example 60, 2-methyl-N-(3-methyl-8-(4-oxo-4,5,6,7-tetrahydro-1H-pyrrolo[3,2-c]pyridin-2-yl)-2-quinoxalinyl)alanine]",191,300,–
"COC(=O)C(C)(C)Nc1nc2c(-c3cc4c([nH]3)CCNC4=O)cccc2nc1C [Example 57, Methyl 2-methyl-N-(3-methyl-8-(4-oxo-4,5,6,7-tetrahydro-1H-pyrrolo[3,2-c]pyridin-2-yl)-2-quinoxalinyl)alaninate]",54.3,24.2,–
"Cn1c(Nc2ccccc2)nc2c(-c3cc4c([nH]3)CCNC4=O)cccc2c1=O [Example 266, 3-methyl-8-(4-oxo-4,5,6,7-tetrahydro-1H-pyrrolo[3,2-c]pyridin-2-yl)-2-(phenylamino)quinazolin-4(3H)-one]",2,3.1,–
"Cc1nc2cccc(-c3cc4c([nH]3)CCNC4=O)c2nc1N[C@H]1C[C@H](N)C1 [Example 437, 2-(3-(((1r,3r)-3-aminocyclobutyl)amino)-2-methylquinoxalin-5-yl)-6,7-dihydro-1H-pyrrolo[3,2-c]pyridin-4(5H)-one hydrochloride]",–,0.5,–
"C[C@H]1NC(=O)c2cc(-c3cccc4c(=O)n(C5CCOCC5)c(NC(C)(C)C)nc34)[nH]c21 [Example 514, (R)-2-(tert-butylamino)-8-(6-methyl-4-oxo-1,4,5,6-tetrahydropyrrolo[3,4-b]pyrrol-2-yl)-3-(tetrahydro-2H-pyran-4-yl)quinazolin-4(3H)-one]",0.671,0.287,–
"Cc1nc2cccc(-c3cc4c([nH]3)[C@@H](C)NC4=O)c2nc1N[C@H]1CCC[C@@H](N)C1 [Example 483, (6R)-2-(3-(((1S,3R)-3-aminocyclohexyl)amino)-2-methyl-5-quinoxalinyl)-6-methyl-5,6-dihydropyrrolo[3,4-b]pyrrol-4(1H)-one]",0.0358,0.0598,–
"Cc1nc2cccc(-c3cc4c([nH]3)C[C@@H](C)NC4=O)c2nc1NC(C)(C)C [Example 289, (6R)-2-(3-(tert-butylamino)-2-methyl-5-quinoxalinyl)-6-methyl-1,5,6,7-tetrahydro-4H-pyrrolo[3,2-c]pyridin-4-one]",3.37,2.69,–
"Cc1nc2cccc(-c3cc4c([nH]3)[C@@H](C)NC4=O)c2nc1N[C@H]1CCC[C@@H](NS(C)(=O)=O)C1 [Example 489, N-((1R,3S)-3-((3-methyl-8-((6R)-6-methyl-4-oxo-1,4,5,6-tetrahydropyrrolo[3,4-b]pyrrol-2-yl)-2-quinoxalinyl)amino)cyclohexyl)methanesulfonamide]",2,4,–
"Cc1nc2cccc(-c3cc4c([nH]3)CCNC4=O)c2nc1N[C@@H](C)C(F)(F)F [Example 255, (S)-2-(2-methyl-3-((1,1,1-trifluoropropan-2-yl)amino)quinoxalin-5-yl)-6,7-dihydro-1H-pyrrolo[3,2-c]pyridin-4(5H)-one]",27.2,28.3,–
"CC(C)(C)Nc1nc2c(-c3cc4c([nH]3)CCNC4=O)cccc2nc1-c1ccccc1 [Example 438, 2-(3-(tert-Butylamino)-2-phenylquinoxalin-5-yl)-6,7-dihydro-1H-pyrrolo[3,2-c]pyridin-4(5H)-one]",12,3.1,–
"C[C@H]1NC(=O)c2cc(-c3cccc4c(=O)n(CCCO)c(NC(C)(C)C)nc34)[nH]c21 [Example 500, 2-(tert-butylamino)-3-(3-hydroxypropyl)-8-((6R)-6-methyl-4-oxo-1,4,5,6-tetrahydropyrrolo[3,4-b]pyrrol-2-yl)-4(3H)-quinazolinone]",0.11,0.12,–
"CC(C)(C)Nc1nc2c(-c3cc4c([nH]3)CCNC4=O)cccc2nc1C(F)(F)F [Example 224, 2-(3-(tert-butylamino)-2-(trifluoromethyl)quinoxalin-5-yl)-6,7-dihydro-1H-pyrrolo[3,2-c]pyridin-4(5H)-one]",2.8,4.2,–
"CC(=O)N1CC[C@H](Nc2nc3c(-c4cc5c([nH]4)CCNC5=O)cccc3nc2C)C1 [Example 65, (S)-2-(3-((1-acetylpyrrolidin-3-yl)amino)-2-methylquinoxalin-5-yl)-6,7-dihydro-1H-pyrrolo[3,2-c]pyridin-4(5H)-one]",–,57.8,72.8
"C[C@H]1NC(=O)c2cc(-c3cccc4c(=O)n(-c5cccnc5)c(NC(C)(C)C)nc34)[nH]c21 [Example 482, 2-(tert-butylamino)-8-((6R)-6-methyl-4-oxo-1,4,5,6-tetrahydropyrrolo[3,4-b]pyrrol-2-yl)-3-(3-pyridinyl)-4(3H)-quinazolinone]",2.77,0.718,–
"Cc1nc2cccc(-c3cc4c([nH]3)CCNC4=O)c2nc1N[C@H]1CCN(C(=O)OC(C)(C)C)C1 [Example 49, (S)-tert-butyl-3-((3-methyl-8-(4-oxo-4,5,6,7-tetrahydro-1H-pyrrolo[3,2-c]pyridin-2-yl)quinoxalin-2-yl)amino)pyrrolidine-1-carboxylate]",144,47.2,–
"Cc1nc2cccc(-c3cc4c([nH]3)C(C)CNC4=O)c2nc1NC1CC1 (single isomer, unassigned) [Example 160, 2-(3-(cyclopropylamino)-2-methylquinoxalin-5-yl)-7-methyl-6,7-dihydro-1H-pyrrolo[3,2-c]pyridin-4(5H)-one]",0.5,1,–
"Cc1nc2cccc(-c3cc4c([nH]3)[C@@H](C)NC4=O)c2nc1N[C@H]1CCC[C@@H](NCC(F)(F)F)C1 [Example 487, (6R)-6-methyl-2-(2-methyl-3-(((1S,3R)-3-((2,2,2-trifluoroethyl)amino)cyclohexyl)amino)-5-quinoxalinyl)-5,6-dihydropyrrolo[3,4-b]pyrrol-4(1H)-one]",–,0.501,–
"Cc1nc2cccc(-c3cc4c([nH]3)CCNC4=O)c2nc1NC(C)C(F)(F)F (stereo in doubt) [Example 256, (R)-2-(2-methyl-3-((1,1,1-trifluoropropan-2-yl)amino)quinoxalin-5-yl)-6,7-dihydro-1H-pyrrolo[3,2-c]pyridin-4(5H)-one]",4.32,4.97,–
"CC(C)Nc1nc2c(-c3cc4c([nH]3)[C@@H](C)NC4=O)c(F)ccc2c(=O)n1C1CC1 [Example 490, (R)-3-cyclopropyl-7-fluoro-2-(isopropylamino)-8-(6-methyl-4-oxo-1,4,5,6-tetrahydropyrrolo[3,4-b]pyrrol-2-yl)quinazolin-4(3H)-one]",0.2,0.1,–
"Cc1nc2cccc(-c3cc4c([nH]3)CCNC4=O)c2nc1NC1CCN(C(=O)OC(C)(C)C)CC1 [Example 47, tert-butyl 4-((3-methyl-8-(4-oxo-4,5,6,7-tetrahydro-1H-pyrrolo[3,2-c]pyridin-2-yl)-2-quinoxalinyl)amino)-1-piperidinecarboxylate]",34.9,13.2,–
"CCn1c(NC2(C)CC2)nc2c(-c3cc4c([nH]3)[C@@H](C)NC4=O)c(F)ccc2c1=O [Example 513, (R)-3-Ethyl-7-fluoro-8-(6-methyl-4-oxo-1,4,5,6-tetrahydropyrrolo[3,4-b]pyrrol-2-yl)-2-((1-methylcyclopropyl)amino)quinazolin-4(3H)-one]",0.0378,0.013,–
"Cc1nc2cccc(-c3cc4c([nH]3)CCNC4=O)c2nc1N[C@H]1C[C@H](NC(=O)OC(C)(C)C)C1 [Example 436, tert-butyl ((1r,3s)-3-((3-methyl-8-(4-oxo-4,5,6,7-tetrahydro-1H-pyrrolo[3,2-c]pyridin-2-yl)quinoxalin-2-yl)amino)cyclobutyl)carbamate]",8.2,4.1,–
"Cc1nc2cccc(-c3cc4c([nH]3)CCNC4=O)c2nc1NC1CNC1 [Example 150, 2-(3-(azetidin-3-ylamino)-2-methylquinoxalin-5-yl)-6,7-dihydro-1H-pyrrolo[3,2-c]pyridin-4(5H)-one]",5.9,2,–
"Cc1nc2cccc(-c3cc4c([nH]3)CCNC4=O)c2nc1N[C@H]1C[C@@H](NCCF)C1 [Example 477, 2-(3-(((1s,3s)-3-((2-fluoroethyl)amino)cyclobutyl)amino)-2-methylquinoxalin-5-yl)-6,7-dihydro-1H-pyrrolo[3,2-c]pyridin-4(5H)-one]",1,1,–
"Cc1nc2cccc(-c3cc4c([nH]3)CCNC4=O)c2nc1N[C@H]1CCCN(C(=O)OC(C)(C)C)C1 [Example 51, tert-butyl (3S)-3-((3-methyl-8-(4-oxo-4,5,6,7-tetrahydro-1H-pyrrolo[3,2-c]pyridin-2-yl)-2-quinoxalinyl)amino)-1-piperidinecarboxylate]",220,191,–
"C[C@H]1NC(=O)c2cc(-c3c(F)ccc4c(=O)n(C5CC5)c(NC5(C)CCC5)nc34)[nH]c21 [Example 498, 3-Cyclopropyl-7-fluoro-2-((1-methylcyclobutyl)amino)-8-((6R)-6-methyl-4-oxo-1,4,5,6-tetrahydropyrrolo[3,4-b]pyrrol-2-yl)-4(3H)-quinazolinone]",–,0.07,–
"(R)-2-(3-(cyclopropylamino)-6-fluoro-2-methylquinoxalin-5-yl)-6-methyl-5,6-dihydropyrrolo[3,4-b]pyrrol-4(1H)-one [Example 284]",–,1.2,–
"C[C@H]1NC(=O)c2cc(-c3cccc4c(=O)n(C)c(N[C@H]5CCC[C@@H](N)C5)nc34)[nH]c21 (racemic) [Example 506, (rac)-2-(((cis)-3-aminocyclohexyl)amino)-3-methyl-8-((6R)-6-methyl-4-oxo-1,4,5,6-tetrahydropyrrolo[3,4-b]pyrrol-2-yl)-4(3H)-quinazolinone]",0.1,–,–

# — patent US9394297B2, “Amides as pim inhibitors” (AMGEN INC., priority 2012, dated 2016)
